Results on 27 compounds are retold here after patent US8735406B2, “8-oxodihydropurine derivative” (Dainippon Sumitomo Pharma Co., Ltd., priority 2009, dated 2014).

Like-named read-outs stand apart in the source and are kept apart here. Where only a bound is given, the exact number is not on record here.

The target in the experiment is T1, FAAH (Rattus norvegicus, UniProt P97612).
T1 construct: Preparation of Rat Brain Membranes Preparations (FAAH Enzyme Solution); from tissue; host or cells: rat cerebrum (brain membrane preparation)
T1 sequence (P97612 1-579): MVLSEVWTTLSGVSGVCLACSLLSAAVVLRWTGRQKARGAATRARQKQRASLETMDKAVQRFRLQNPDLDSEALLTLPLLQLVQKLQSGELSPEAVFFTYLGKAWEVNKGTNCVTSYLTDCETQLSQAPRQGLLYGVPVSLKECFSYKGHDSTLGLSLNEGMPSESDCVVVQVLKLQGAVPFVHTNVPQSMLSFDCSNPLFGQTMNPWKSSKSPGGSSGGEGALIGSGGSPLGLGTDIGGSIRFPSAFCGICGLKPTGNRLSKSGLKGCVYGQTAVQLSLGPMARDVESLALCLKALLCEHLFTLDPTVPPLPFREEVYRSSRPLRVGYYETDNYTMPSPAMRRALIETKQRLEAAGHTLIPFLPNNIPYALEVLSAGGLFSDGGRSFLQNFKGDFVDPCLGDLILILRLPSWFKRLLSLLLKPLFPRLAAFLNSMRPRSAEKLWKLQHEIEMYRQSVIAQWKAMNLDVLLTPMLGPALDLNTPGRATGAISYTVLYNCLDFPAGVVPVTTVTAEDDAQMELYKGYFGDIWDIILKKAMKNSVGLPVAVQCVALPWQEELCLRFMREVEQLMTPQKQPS
The experiment can be described thus: Determination of FAAH inhibitory activity in rat (rat brain membrane preparations, [3H]-anandamide hydrolysis). Type of experiment: biochemical. The conditions noted are these: for inhibition at 0.1 µM: read-out: FAAH Inhibition, Inhibition Rate at 100 nM; for IC50: test substance 0.1 nM to 1 μM, read-out: FAAH Inhibition IC50. The protocol: Determination of FAAH Inhibitory Activity in Rat
The preparation of rat brain membranes preparations and the determination of FAAH inhibitory activity were carried out according to the Jonsson et al. method [Br. J. Pharmacol., 133, 1263 (2001)].
(1) Preparation of Rat Brain Membranes Preparations (FAAH Enzyme Solution)
The cerebrum was extracted from rats and was freeze-stored at −80° C. To the frozen cerebrum was added 4° C. enzyme homogenization buffer (20 mM HEPES-buffer pH 7.0, 1 mM MgCl2) and the mixture was homogenized using a homogenizer in ice and the homogenates were centrifuged (36,000×g for 20 minutes). After repeating operations of homogenization and centrifugation, the tissue pellets were re-suspended with 4° C. enzyme homogenization buffer. The re-suspensions were incubated at 37° C. for 15 minutes and were centrifuged (36,000×g for 20 minutes), and the resulting tissue membranes were then re-suspended with enzyme solution preparation buffer (50 mM Tris-HCl buffer pH 7.4, 1 mM EDTA, 3 mM MgCl2). The protein concentration in the resulting membrane preparations were determined according to a colorimetry method (BCA Protein Assay: Pierce Inc.) and the preparations were freeze-stored at −80° C. until used for assay.
(2) Screening of Substances for Inhibiting FAAH Activity
To the above membrane preparations (final concentration 100 μg/mL) were added a solution of test substances in DMSO (final concentration in DMSO 1%) and an assay buffer (for final preparation; 22 mM Tris-HCl (pH 7.6), 1.4 mM EDTA, 1.5% BSA, 0.6 mM MgCl2) and the resulting mixtures were preincubated at 37° C. for 10 minutes. Thereto was added a substrate solution (for final preparation; 2 nM [^3H]-Anandamide (American Radiolabeled Chemicals Inc.)+2 μM Anandamide (Sigma-Aldrich Co.)) (final assay volume of 200 μL) and the resulting mixtures were incubated at 37° C. for 10 minutes. Here in control experiment, DMSO was added instead of the solution of test substance in DMSO. Also in blank experiment, DMSO was added instead of the solution of test substance in DMSO and an enzyme solution preparation buffer was also added instead of the membrane preparations. After the incubation, thereto was added a 400 μL ice-cooled solution of chloroform and methanol (1:1 ratio by volume) and the resulting mixtures were stirred. An ethanolamine (ethanolamine-1-[^3H]) as a decomposed product was separated into an upper layer (water/methanol layer) by centrifugation (1,000×g for 10 minutes). The upper layer 200 μL was transferred into 96 well Deepwell Luma Plate-96 (PerkinElmer Inc.) and the radioactivity was measured by microplate scintillation counter (TopCount NXT™: […].). The substances showing a lower measured value compared to those of control were selected as the compound having a FAAH inhibitory activity.
(3) Determination of IC50 Value
The test substances were prepared such that the final concentration of the compounds is within the range of 0.1 nM to 1 μM and were then examined on the effect on FAAH activity according to the above-mentioned protocol.

Where [1] appears, read: rat brain membrane preparations, 100 nM test substance.
Setting [2] is: rat brain membrane preparations.

Broadly, the inhibition is the relative decrease from the control value, in per cent. By IC50 is commonly meant the point on the concentration scale where inhibition reaches its midpoint. As for `Cn1c(=O)n(C(=O)N2CCCC2)c2cnc(/C=C/c3ccccc3)nc21` [Example 1, 9-methyl-2-[(E)-2-phenylethenyl]-7-(pyrrolidin-1-ylcarbonyl)-7,9-dihydro-8H-purine-8-one], under setting [1], the inhibition at 0.1 µM amounted to 100%. In addition, the IC50 under setting [2] came out at 6 nM.
In the same order, the values of `CCN(C)C(=O)n1c(=O)n(C)c2nc(-c3ccccc3)ncc21` [Example 2, N-ethyl-N,9-dimethyl-8-oxo-2-phenyl-8,9-dihydro-7H-purine-7-carboxamide] are 99% and 10 nM.
The corresponding values for `COc1ccc(/C=C/c2ncc3c(n2)n(C)c(=O)n3C(=O)N2CCCC2)cc1` [Example 4, 2-[(E)-2-(4-Methoxyphenyl)ethenyl]-9-methyl-7-(pyrrolidin-1-ylcarbonyl)-7,9-dihydro-8H-purine-8-one] are 99% and 10 nM.
The corresponding values for `Cn1c(=O)n(C(=O)N2CCCC2)c2cnc(/C=C/c3ccc(F)cc3)nc21` [Example 5, 2-[(E)-2-(4-Fluorophenyl)ethenyl]-9-methyl-7-(pyrrolidin-1-ylcarbonyl)-7,9-dihydro-8H-purine-8-one] are 98% and 15 nM.
In the case of `Cn1c(=O)n(C(=O)N2CCCC2)c2cnc(/C=C/c3ccc(Cl)cc3)nc21` [Example 8, 2-[(E)-2-(4-Chlorophenyl)ethenyl]-9-methyl-7-(pyrrolidin-1-ylcarbonyl)-7,9-dihydro-8H-purine-8-one], the inhibition at 0.1 µM under setting [1] was 87%. Moreover, the half-inhibitory concentration (IC50) under setting [2] turned out to be 57 nM.
Regarding `Cc1ccc(/C=C/c2ncc3c(n2)n(C)c(=O)n3C(=O)N2CCCC2)cc1` [Example 9, 9-Methyl-2-[(E)-2-(4-methylphenyl)ethenyl]-7-(pyrrolidin-1-ylcarbonyl)-7,9-dihydro-8H-purine-8-one], the inhibition at 0.1 µM under setting [1] stood at 92%. Moreover, the concentration for half-maximal inhibition (IC50) under setting [2] stood at 47 nM.
Turning to `Cn1c(=O)n(C(=O)N2CCCC2)c2cnc(CCc3ccccc3)nc21` [Example 11, 9-Methyl-2-(2-phenylethyl)-7-(pyrrolidin-1-ylcarbonyl)-7,9-dihydro-8H-purine-8-one], the inhibition at 0.1 µM under setting [1] is 79%. Further, under setting [2], the IC50 was determined as 66 nM.
In the same order, the values of `COc1ccc(CCc2ncc3c(n2)n(C)c(=O)n3C(=O)N2CCCC2)cc1` [Example 12, 2-[2-(4-Methoxyphenyl)ethyl]-9-methyl-7-(pyrrolidin-1-ylcarbonyl)-7,9-dihydro-8H-purine-8-one] are 93% and 46 nM.
The corresponding values for `Cn1c(=O)n(C(=O)N2CCCC2)c2cnc(-c3ccccc3)nc21` [Example 16, 9-Methyl-2-phenyl-7-(pyrrolidin-1-ylcarbonyl)-7,9-dihydro-8H-purine-8-one] are 100% and 7 nM.
In the same order, the values of `Cn1c(=O)n(C(=O)N2CCCC2)c2cnc(-c3cccc(Cl)c3)nc21` [Example 17] are 101% and 8 nM.
Regarding `Cn1c(=O)n(C(=O)N2CCCC2)c2cnc(-c3ccc(Cl)cc3)nc21` [Example 18], the inhibition at 0.1 µM under setting [1] worked out at 99%. Besides, the IC50 under setting [2] is 7 nM.
In the same order, the values of `Cn1c(=O)n(C(=O)N2CCCC2)c2cnc(Cc3cccc(Cl)c3)nc21` [Example 19, 2-(3-Chlorobenzyl)-9-methyl-7-(pyrrolidin-1-ylcarbonyl)-7,9-dihydro-8H-purine-8-one] are 99% and 9 nM.
On to `Cn1c(=O)n(C(=O)N2CCCC2)c2cnc(Cc3ccc(Cl)cc3)nc21` [Example 20, 2-(4-Chlorobenzyl)-9-methyl-7-(pyrrolidin-1-ylcarbonyl)-7,9-dihydro-8H-purine-8-one], for which the inhibition at 0.1 µM under setting [1] stood at 95%. Besides, the IC50 under setting [2] turned out to be 40 nM.
For `Cn1c(=O)n(C(=O)N2CCCC2)c2cnc(CCCc3ccccc3)nc21` [Example 21], the inhibition at 0.1 µM under setting [1] was 57%. Besides, the IC50 under setting [2] stood at 84 nM.
For the compound `CN(C)C(=O)n1c(=O)n(C)c2nc(-c3ccccc3)ncc21` [Example 22], the inhibition at 0.1 µM under setting [1] is 102%. For the same compound, under setting [2], the IC50 amounted to 12 nM.
As to `Cn1c(=O)n(C(=O)N2CCC2)c2cnc(-c3ccccc3)nc21` [Example 23, 7-(Azetidin-1-ylcarbonyl)-9-methyl-2-phenyl-7,9-dihydro-8H-purine-8-one], the inhibition at 0.1 µM under setting [1] came out at 102%. Also, the IC50 under setting [2] came to 5 nM.
In the same order, the values of `Cn1c(=O)n(C(=O)N2CCCCC2)c2cnc(-c3ccccc3)nc21` [Example 24, 9-Methyl-2-phenyl-7-(piperidin-1-ylcarbonyl)-7,9-dihydro-8H-purine-8-one] are 97% and 29 nM.
In the same order, the values of `CN1CCN(C(=O)n2c(=O)n(C)c3nc(-c4ccccc4)ncc32)CC1` [Example 26] are 38% and above 100 nM.
`CN(C(=O)n1c(=O)n(C)c2nc(-c3ccccc3)ncc21)c1ccccc1` [Example 27]: under setting [1], the inhibition at 0.1 µM is 76%. Moreover, the IC50 under setting [2] came to 63 nM.
The corresponding values for `COC[C@H]1CCCN1C(=O)n1c(=O)n(C)c2nc(-c3ccccc3)ncc21` [Example 29] are 67% and 75 nM.
In the same order, the values of `Cn1c(=O)n(C(=O)N2CCC(c3ccccc3)CC2)c2cnc(-c3ccccc3)nc21` [Example 33, 9-Methyl-2-phenyl-7-[(4-phenylpiperidin-1-yl)carbonyl]-7,9-dihydro-8H-purine-8-one] are 91% and 47 nM.
With `CN(Cc1ccccc1)C(=O)n1c(=O)n(C)c2nc(-c3ccccc3)ncc21` [Example 34, N-Benzyl-N,9-dimethyl-8-oxo-2-phenyl-8,9-dihydro-7H-purine-7-carboxamide], the inhibition at 0.1 µM under setting [1] was 101%. For the same compound, the half-maximal inhibitory concentration (IC50) under setting [2] worked out at 23 nM.
Consider `CN(CCCc1ccccc1)C(=O)n1c(=O)n(C)c2nc(-c3ccccc3)ncc21` [Example 35, N,9-Dimethyl-8-oxo-2-phenyl-N-(3-phenylpropyl)-8,9-dihydro-7H-purine-7-carboxamide], for which the inhibition at 0.1 µM was determined as 100%. Besides, the concentration for half-maximal inhibition (IC50) under setting [2] worked out at 8 nM.
With `CN(CCCCc1ccccc1)C(=O)n1c(=O)n(C)c2nc(-c3ccccc3)ncc21` [Example 36, N,9-Dimethyl-8-oxo-2-phenyl-N-(4-phenylbutyl)-8,9-dihydro-7H-purine-7-carboxamide], the inhibition at 0.1 µM under setting [1] turned out to be 98%. In addition, the IC50 under setting [2] came out at 7 nM.
The corresponding values for `CCOC(=O)CN(C)C(=O)n1c(=O)n(C)c2nc(-c3ccccc3)ncc21` [Example 37, Ethyl N-methyl-N-[(9-methyl-8-oxo-2-phenyl-8,9-dihydro-7H-purin-7-yl)carbonyl]glycinate] are 91% and 46 nM.
In the same order, the values of `COC(=O)CN(C)C(=O)n1c(=O)n(C)c2nc(-c3ccccc3)ncc21` [Example 38] are 73% and 76 nM.
In the same order, the values of `COCCN(C)C(=O)n1c(=O)n(C)c2nc(-c3ccccc3)ncc21` [Example 39, N-(2-Methoxyethyl)-N,9-dimethyl-8-oxo-2-phenyl-8,9-dihydro-7H-purine-7-carboxamide] are 98% and 43 nM.
